Measurements published in patent publication US10072026B2, “Crystalline form of 3-((1R,3s,5S)-3-((7-((5-methyl-1H-pyrazol-3-yl)amino)-1,6-naphthyridin-5-yl)amino)-8-azabicyclo[3.2.1]octan-8-yl)propanenitrile” (priority 2015, dated 2018).

How the values were obtained:
[1] = target: JAK1 (Homo sapiens (Human), UniProt P23458); assay: LanthaScreen JAK biochemical assay (JAK1)
[2] = target: JAK2 (Homo sapiens (Human), UniProt O60674); assay: LanthaScreen JAK biochemical assay (JAK2)
[3] = target: JAK3 (Homo sapiens (Human), UniProt P52333); assay: LanthaScreen JAK biochemical assay (JAK3)
[4] = target: Tyk2 (Homo sapiens (Human), UniProt P29597); assay: LanthaScreen JAK biochemical assay (Tyk2)
Tyk2, sequence (P29597 whole entry): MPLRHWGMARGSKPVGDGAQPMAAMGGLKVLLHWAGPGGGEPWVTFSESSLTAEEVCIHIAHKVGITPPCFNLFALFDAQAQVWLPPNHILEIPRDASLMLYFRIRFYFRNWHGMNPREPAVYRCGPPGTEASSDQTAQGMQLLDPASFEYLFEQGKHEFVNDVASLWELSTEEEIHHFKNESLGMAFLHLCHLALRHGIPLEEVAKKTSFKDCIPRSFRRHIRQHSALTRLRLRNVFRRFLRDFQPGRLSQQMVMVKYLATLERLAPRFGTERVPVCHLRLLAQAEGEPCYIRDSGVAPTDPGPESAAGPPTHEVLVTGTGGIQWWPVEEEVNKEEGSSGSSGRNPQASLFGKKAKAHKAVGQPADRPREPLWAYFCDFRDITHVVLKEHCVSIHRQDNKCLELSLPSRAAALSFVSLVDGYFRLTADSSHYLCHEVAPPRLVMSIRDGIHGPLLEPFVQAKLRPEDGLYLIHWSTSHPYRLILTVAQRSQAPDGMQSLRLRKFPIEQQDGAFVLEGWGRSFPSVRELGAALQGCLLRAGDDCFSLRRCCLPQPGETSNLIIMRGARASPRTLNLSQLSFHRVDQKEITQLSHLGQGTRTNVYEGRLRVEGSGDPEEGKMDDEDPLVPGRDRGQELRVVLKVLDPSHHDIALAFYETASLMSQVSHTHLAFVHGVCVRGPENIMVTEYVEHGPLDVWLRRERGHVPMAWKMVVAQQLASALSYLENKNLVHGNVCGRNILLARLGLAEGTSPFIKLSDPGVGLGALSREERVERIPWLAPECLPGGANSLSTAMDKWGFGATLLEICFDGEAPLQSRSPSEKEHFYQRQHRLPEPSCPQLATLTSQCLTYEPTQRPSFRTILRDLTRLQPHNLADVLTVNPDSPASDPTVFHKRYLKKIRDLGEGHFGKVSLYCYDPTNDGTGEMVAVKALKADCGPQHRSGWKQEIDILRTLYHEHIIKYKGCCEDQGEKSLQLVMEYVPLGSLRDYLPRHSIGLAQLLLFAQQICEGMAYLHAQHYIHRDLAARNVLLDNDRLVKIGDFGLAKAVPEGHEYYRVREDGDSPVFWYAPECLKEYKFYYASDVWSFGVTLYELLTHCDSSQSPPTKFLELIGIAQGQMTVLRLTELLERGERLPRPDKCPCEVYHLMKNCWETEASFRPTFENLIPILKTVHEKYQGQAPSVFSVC

[5] = system: IL-13 induced STAT6 phosphorylation in BEAS-2B human lung epithelial cells; assay: AlphaScreen cellular JAK potency assay, BEAS-2B
[6] = system: IL-4 induced STAT6 phosphorylation in THP-1 human monocytic cells; assay: Cellular JAK potency assay, THP-1; conditions: for THP-1 IL4 pIC50: THP-1 cells, IL-4 induced STAT6 phosphorylation
[7] = BEAS-2B cells, IL-13 induced STAT6 phosphorylation

JAK1, sequence (P23458 whole entry): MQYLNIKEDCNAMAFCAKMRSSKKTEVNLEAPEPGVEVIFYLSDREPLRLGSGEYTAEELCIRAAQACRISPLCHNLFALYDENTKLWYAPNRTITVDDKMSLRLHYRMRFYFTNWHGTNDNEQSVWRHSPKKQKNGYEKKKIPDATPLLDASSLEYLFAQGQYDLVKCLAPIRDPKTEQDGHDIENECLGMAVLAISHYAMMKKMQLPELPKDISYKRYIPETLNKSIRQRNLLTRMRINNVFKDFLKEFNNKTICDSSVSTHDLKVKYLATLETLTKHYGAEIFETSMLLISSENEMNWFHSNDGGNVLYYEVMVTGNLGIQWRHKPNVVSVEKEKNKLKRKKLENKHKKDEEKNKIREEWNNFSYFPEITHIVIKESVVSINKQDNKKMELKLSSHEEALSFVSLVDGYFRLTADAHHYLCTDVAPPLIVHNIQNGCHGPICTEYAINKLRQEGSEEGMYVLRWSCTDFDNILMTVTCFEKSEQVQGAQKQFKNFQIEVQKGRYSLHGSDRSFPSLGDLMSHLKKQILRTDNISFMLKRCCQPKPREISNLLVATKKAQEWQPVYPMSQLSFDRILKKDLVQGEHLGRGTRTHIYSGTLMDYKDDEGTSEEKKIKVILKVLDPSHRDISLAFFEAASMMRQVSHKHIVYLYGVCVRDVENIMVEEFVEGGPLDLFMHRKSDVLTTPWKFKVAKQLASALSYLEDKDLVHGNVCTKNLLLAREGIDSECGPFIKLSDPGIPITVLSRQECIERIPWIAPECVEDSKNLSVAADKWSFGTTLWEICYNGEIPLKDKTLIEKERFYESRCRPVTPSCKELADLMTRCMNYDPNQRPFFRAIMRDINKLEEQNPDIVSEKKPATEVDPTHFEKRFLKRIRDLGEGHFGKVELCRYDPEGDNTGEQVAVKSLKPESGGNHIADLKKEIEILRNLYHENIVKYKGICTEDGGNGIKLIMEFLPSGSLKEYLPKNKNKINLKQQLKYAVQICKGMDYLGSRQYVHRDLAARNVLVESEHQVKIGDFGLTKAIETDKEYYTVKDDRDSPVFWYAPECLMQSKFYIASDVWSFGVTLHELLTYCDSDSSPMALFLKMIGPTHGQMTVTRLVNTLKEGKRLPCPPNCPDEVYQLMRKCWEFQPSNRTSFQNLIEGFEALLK
JAK2, sequence (O60674 whole entry): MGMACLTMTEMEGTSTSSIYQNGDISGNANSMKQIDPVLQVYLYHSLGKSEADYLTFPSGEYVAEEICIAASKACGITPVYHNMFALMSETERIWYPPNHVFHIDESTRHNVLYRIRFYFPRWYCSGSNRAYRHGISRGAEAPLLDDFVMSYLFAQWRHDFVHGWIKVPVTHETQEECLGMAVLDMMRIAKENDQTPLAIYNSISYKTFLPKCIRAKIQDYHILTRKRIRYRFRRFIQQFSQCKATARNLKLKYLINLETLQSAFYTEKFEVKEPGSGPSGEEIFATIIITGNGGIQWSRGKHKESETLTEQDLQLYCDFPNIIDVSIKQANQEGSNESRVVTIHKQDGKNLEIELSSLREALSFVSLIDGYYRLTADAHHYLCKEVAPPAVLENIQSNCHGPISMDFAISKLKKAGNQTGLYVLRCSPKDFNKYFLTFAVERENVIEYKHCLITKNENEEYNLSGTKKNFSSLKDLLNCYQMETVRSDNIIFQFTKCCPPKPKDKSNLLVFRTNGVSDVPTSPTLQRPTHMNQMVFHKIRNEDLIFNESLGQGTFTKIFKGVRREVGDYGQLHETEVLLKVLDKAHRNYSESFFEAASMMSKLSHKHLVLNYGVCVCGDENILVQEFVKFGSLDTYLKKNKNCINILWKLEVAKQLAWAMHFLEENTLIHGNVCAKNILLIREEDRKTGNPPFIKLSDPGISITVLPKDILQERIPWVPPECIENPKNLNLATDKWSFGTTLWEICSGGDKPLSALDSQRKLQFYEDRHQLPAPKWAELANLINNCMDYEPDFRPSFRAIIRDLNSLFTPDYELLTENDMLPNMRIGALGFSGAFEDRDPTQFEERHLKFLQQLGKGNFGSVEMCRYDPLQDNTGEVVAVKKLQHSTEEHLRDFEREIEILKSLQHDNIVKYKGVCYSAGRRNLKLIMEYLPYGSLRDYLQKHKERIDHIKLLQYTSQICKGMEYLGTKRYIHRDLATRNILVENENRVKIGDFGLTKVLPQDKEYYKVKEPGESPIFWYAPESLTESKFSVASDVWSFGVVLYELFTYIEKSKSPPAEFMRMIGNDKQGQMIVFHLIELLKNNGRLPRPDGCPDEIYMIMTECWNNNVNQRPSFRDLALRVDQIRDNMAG

SMILES	JAK 1 (pKi) [1]	JAK 2 (pKi) [2]	JAK 3 (pKi) [3]	Tyk 2 (pKi) [4]	BEAS2B pIC50 ([5]; IL-13 induced STAT6 phosphorylation, BEAS-2B cells)	THP-1 IL4 pIC50 [6]	BEAS2B pIC50 [5, 7]	Ki ([1]; read-out: JAK 1 (pKi) (converted)) [nM]	Ki ([3]; read-out: JAK 3 (pKi) (converted)) [nM]	Ki ([4]; read-out: Tyk 2 (pKi) (converted)) [nM]	IC50 ([6]; Homo sapiens, THP-1, read-out: THP-1 IL4 pIC50 (converted)) [nM]	IC50 ([5]; Homo sapiens, BEAS-2B, read-out: BEAS2B pIC50 (converted)) [nM]
Cc1cc(Nc2cc3ncccc3c(N[C@@H]3C[C@H]4CCC[C@@H](C3)N4C(=O)OCC3CC3)n2)n[nH]1 [Example 3-10]	B (B represents a pKi value between 9 and 10 (Ki between 1 nM and 0.1 nM))	B (B represents a pKi value between 9 and 10 (Ki between 1 nM and 0.1 nM))	C (C represents a pKi value between 7 and 9 (Ki between 100 nM and 1 nM))	B (B represents a pKi value between 9 and 10 (Ki between 1 nM and 0.1 nM))	B (B represents a pEC50 value between 6.7 and 7.5 (EC50 between 200 nM and 32 nM))	–	–	–	–	–	–	–
Cc1cnc2cc(Nc3cc(C)[nH]n3)nc(N[C@@H]3C[C@H]4CC[C@@H](C3)N4CCC#N)c2c1 [Example 6-1]	B (B represents a pKi value between 9 and 10 (Ki between 1 nM and 0.1 nM))	B (B represents a pKi value between 9 and 10 (Ki between 1 nM and 0.1 nM))	C (C represents a pKi value between 7 and 9 (Ki between 100 nM and 1 nM))	B (B represents a pKi value between 9 and 10 (Ki between 1 nM and 0.1 nM))	–	A (A represents a pEC50 value≥7.5 (EC50≤32 nM))	A (A represents a pEC50 value≥7.5 (EC50≤32 nM))	–	–	–	–	–
Cc1cnc2cc(Nc3cc(C)[nH]n3)nc(N[C@@H]3C[C@H]4CC[C@@H](C3)N4S(C)(=O)=O)c2c1 [Example 6-5]	–	A (A represents a pKi value≥10 (Ki≤0.1 nM))	–	–	–	–	–	0.1 to 1	1 to 100	0.1 to 1	< 31.6	< 31.6
COc1cnc2cc(Nc3cc(C)[nH]n3)nc(N[C@@H]3C[C@H]4CC[C@@H](C3)N4S(=O)(=O)CCC#N)c2c1 [Example 6-22]	B (B represents a pKi value between 9 and 10 (Ki between 1 nM and 0.1 nM))	B (B represents a pKi value between 9 and 10 (Ki between 1 nM and 0.1 nM))	C (C represents a pKi value between 7 and 9 (Ki between 100 nM and 1 nM))	B (B represents a pKi value between 9 and 10 (Ki between 1 nM and 0.1 nM))	–	–	B (B represents a pEC50 value between 6.7 and 7.5 (EC50 between 200 nM and 32 nM))	–	–	–	–	–
Cc1cc(Nc2nc(NC3CC4CCC(C3)N4C(=O)C(C)O)c3cccnc3c2F)n[nH]1 (centres unmarked) [Example 8-8]	C (C represents a pKi value between 7 and 9 (Ki between 100 nM and 1 nM))	C (C represents a pKi value between 7 and 9 (Ki between 100 nM and 1 nM))	C (C represents a pKi value between 7 and 9 (Ki between 100 nM and 1 nM))	C (C represents a pKi value between 7 and 9 (Ki between 100 nM and 1 nM))	–	C (C represents a pEC50 value<6.7 (EC50>200 nM))	–	–	–	–	–	–
Cc1cc(Nc2nc(NC3CC4CCCC(C3)N4C(=O)C(C)O)c3cccnc3c2F)n[nH]1 (centres unmarked) [Example 8-16]	B (B represents a pKi value between 9 and 10 (Ki between 1 nM and 0.1 nM))	B (B represents a pKi value between 9 and 10 (Ki between 1 nM and 0.1 nM))	C (C represents a pKi value between 7 and 9 (Ki between 100 nM and 1 nM))	C (C represents a pKi value between 7 and 9 (Ki between 100 nM and 1 nM))	–	B (B represents a pEC50 value between 6.7 and 7.5 (EC50 between 200 nM and 32 nM))	–	–	–	–	–	–
